Source: article PMC6562204 (Bioorganic & Medicinal Chemistry, 2018)

Biological target: CK2α (Homo sapiens, UniProt P68400)
Experiment: biochemical
Settings: read-out: % inhibition of phosphorylation activity of CK2α

Sequence of CK2α (P68400 2-329): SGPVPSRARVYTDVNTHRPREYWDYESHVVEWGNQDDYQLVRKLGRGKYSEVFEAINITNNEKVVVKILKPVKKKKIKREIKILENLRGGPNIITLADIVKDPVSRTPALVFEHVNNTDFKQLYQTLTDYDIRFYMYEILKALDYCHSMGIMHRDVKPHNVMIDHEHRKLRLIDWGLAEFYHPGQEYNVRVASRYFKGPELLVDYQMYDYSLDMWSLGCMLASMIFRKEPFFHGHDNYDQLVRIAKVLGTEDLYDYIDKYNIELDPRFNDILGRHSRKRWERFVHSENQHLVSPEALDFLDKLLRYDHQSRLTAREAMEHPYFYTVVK

NCc1cc(Cl)cc(-c2cccc3[nH]ccc23)c1 [Compound 7, (3-chloro-5-(1H-indol-4-yl)phenyl)methanamine]
inhibition at 100 µM: 18%
